Data taken from patent US9145351B2, “Azole derivatives, methods for producing the same, intermediate thereof, agro-horticultural agents” (KUREHA CORPORATION, priority 2009, dated 2015).
Read-outs that look alike come from different tables or passages of the source.

Assays:
Assay type in all cases: cell-based
Phaeosphaeria nodorum = test: Plate medium fungicidal assay, wheat Septoria nodorum blotch P.n (Experimental Example 5); settings: for inhibition at 5 µg/mL / inhibition at 50 µg/mL: Parastagonospora nodorum
How it was run: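 Compound in DMSO mixed into PDA plate medium at 50 mg/L and 5 mg/L; 4 mm mycelial plug of pre-cultured fungus inoculated onto plate. Colony diameter compared with untreated plate, % mycelial growth inhibition = 100(dc−dt)/dc, scored in 5 grades.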

Rhynchosporium secalis = test: Plate medium fungicidal assay, barley leaf blotch R.sec (Experimental Example 5); settings: for inhibition at 5 µg/mL / inhibition at 50 µg/mL: Rhynchosporium secalis
How it was run: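 Compound in DMSO mixed into PDA plate medium at 50 mg/L and 5 mg/L; 4 mm mycelial plug of the fungus inoculated. Colony diameter compared with untreated plates gives % mycelial growth inhibition R=100(dc−dt)/dc, scored on a 5-grade scale.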

Fusarium graminearum = test: microbe, parasite or virus in culture; settings: for inhibition at 5 µg/mL / inhibition at 50 µg/mL: Fusarium graminearum
[1] = system: Pseudocercoporella herpotrichoides; test: Plate medium fungicidal assay, wheat eye spot P.h (Experimental Example 5)
How it was run: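 Compound in DMSO mixed into PDA agar for plates at 50 mg/L and 5 mg/L, inoculated with a 4 mm mycelial plug of Pseudocercosporella herpotrichoides. Colony diameter compared with untreated plates: % mycelial growth inhibition = 100(dc−dt)/dc, scored on a 5-grade scale.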

Fusarium oxysporum = test: Plate medium fungicidal assay, cucumber fusarium wilt F.c (Experimental Example 5); settings: for inhibition at 5 µg/mL / inhibition at 50 µg/mL: Fusarium oxysporum
How it was run: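 Compound in DMSO mixed into PDA agar to give plates at 50 mg/L and 5 mg/L, then inoculated with 4 mm mycelial plug. Colony diameter compared with untreated plate as % mycelial growth inhibition, R=100(dc−dt)/dc, then scored on a 5-grade scale.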

Giberella fujikuroi = test: Plate medium fungicidal assay, rice bakanae disease G.f (Experimental Example 5)
How it was run: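 Gibberella fujikuroi mycelial plugs (4 mm) placed on PDA plates containing compound at 50 mg/L and 5 mg/L, added from DMSO solution. Colony diameter compared with untreated plates as % inhibition = 100(dc−dt)/dc, then scored in 5 grades.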

Pyricularia oryzae = test: microbe, parasite or virus in culture; settings: for inhibition at 5 µg/mL / inhibition at 50 µg/mL: Pyricularia oryzae
[2] = read-out: Growth inhibition grade, F.g
[3] = read-out: growth inhibition grade F.g
[4] = read-out: Growth inhibition grade, P.o
[5] = read-out: growth inhibition grade P.o
[6] = plate medium containing compound at 5 mg/L
[7] = plate medium containing compound at 50 mg/L

Compound `C[C@]1(CCl)CC[C@@H](Cc2ccc(F)cc2)[C@]1(O)Cn1cncn1` (racemic) [Compound I-77, (1RS,2SR,5SR)-2-chloromethyl-5-(4-fluorobenzyl)-2-methyl-1-(1H-1,2,4-triazol-1-ylmethyl)cyclopentanol] has an inhibition at 5 µg/mL (Phaeosphaeria nodorum; plate medium containing compound at 5 mg/L, read-out: Growth inhibition grade, P.n) of over 80%, an inhibition at 50 µg/mL (Phaeosphaeria nodorum; plate medium containing compound at 50 mg/L, read-out: Growth inhibition grade, P.n) of over 80% and an inhibition at 5 µg/mL (Phaeosphaeria nodorum; plate medium, 5 mg/L, read-out: growth inhibition grade P.n) of over 80%. It also gave an inhibition at 50 µg/mL (Phaeosphaeria nodorum; plate medium, 50 mg/L, read-out: growth inhibition grade P.n) of over 80%, an inhibition at 5 µg/mL (Rhynchosporium secalis; plate medium containing compound at 5 mg/L, read-out: Growth inhibition grade, R.sec) of over 80% and an inhibition at 50 µg/mL (Rhynchosporium secalis; plate medium containing compound at 50 mg/L, read-out: Growth inhibition grade, R.sec) of over 80%. For the same compound, the inhibition at 5 µg/mL (Rhynchosporium secalis; plate medium, 5 mg/L, read-out: growth inhibition grade R.sec) was over 80%, the inhibition at 50 µg/mL (Rhynchosporium secalis; plate medium, 50 mg/L, read-out: growth inhibition grade R.sec) was over 80% and the inhibition at 5 µg/mL (Fusarium graminearum; [2]) was over 80%. The inhibition at 50 µg/mL (Fusarium graminearum; [2]) was over 80%, the inhibition at 5 µg/mL (Fusarium graminearum; [3]) was over 80% and the inhibition at 50 µg/mL (Fusarium graminearum; [3]) was over 80%. For the same compound, the inhibition at 5 µg/mL ([1]; plate medium containing compound at 5 mg/L, read-out: Growth inhibition grade, P.h) was over 80%, the inhibition at 50 µg/mL ([1]; plate medium containing compound at 50 mg/L, read-out: Growth inhibition grade, P.h) was over 80% and the inhibition at 5 µg/mL ([1]; plate medium, 5 mg/L, read-out: growth inhibition grade P.h) was over 80%. It also gave an inhibition at 50 µg/mL ([1]; plate medium, 50 mg/L, read-out: growth inhibition grade P.h) of over 80%, an inhibition at 5 µg/mL (Fusarium oxysporum; plate medium containing compound at 5 mg/L, read-out: Growth inhibition grade, F.c) of over 80% and an inhibition at 50 µg/mL (Fusarium oxysporum; plate medium containing compound at 50 mg/L, read-out: Growth inhibition grade, F.c) of over 80%. The inhibition at 5 µg/mL (Fusarium oxysporum; plate medium, 5 mg/L, read-out: growth inhibition grade F.c) was over 80%, the inhibition at 50 µg/mL (Fusarium oxysporum; plate medium, 50 mg/L, read-out: growth inhibition grade F.c) was over 80% and the inhibition at 5 µg/mL (Giberella fujikuroi; plate medium containing compound at 5 mg/L, read-out: Growth inhibition grade, G.f) was over 80%. It also gave an inhibition at 50 µg/mL (Giberella fujikuroi; plate medium containing compound at 50 mg/L, read-out: Growth inhibition grade, G.f) of over 80%, an inhibition at 5 µg/mL (Giberella fujikuroi; plate medium, 5 mg/L, read-out: growth inhibition grade G.f) of over 80% and an inhibition at 50 µg/mL (Giberella fujikuroi; plate medium, 50 mg/L, read-out: growth inhibition grade G.f) of over 80%. The inhibition at 5 µg/mL (Pyricularia oryzae; [4]) was over 80%, the inhibition at 50 µg/mL (Pyricularia oryzae; [4]) was over 80% and the inhibition at 5 µg/mL (Pyricularia oryzae; [5]) was over 80%. It also gave an inhibition at 50 µg/mL (Pyricularia oryzae; [5]) of over 80%.
For `CC[C@]1(CCl)CC[C@@H](Cc2ccccc2)[C@]1(O)Cn1cncn1` (relative stereo) [Compound I-97], the “Growth inhibition grade, P.n” value (Phaeosphaeria nodorum; [6]) was 5 (% Mycerial growth inhibition of 80% or higher), the “Growth inhibition grade, P.n” value (Phaeosphaeria nodorum; [7]) was 5 (% Mycerial growth inhibition of 80% or higher) and the “Growth inhibition grade, R.sec” value (Rhynchosporium secalis; [6]) was 5 (% Mycerial growth inhibition of 80% or higher). For the same compound, the “Growth inhibition grade, R.sec” value (Rhynchosporium secalis; [7]) was 5 (% Mycerial growth inhibition of 80% or higher), the “Growth inhibition grade, F.g” value (Fusarium graminearum; [6]) was 5 (% Mycerial growth inhibition of 80% or higher) and the “Growth inhibition grade, F.g” value (Fusarium graminearum; [7]) was 5 (% Mycerial growth inhibition of 80% or higher). For the same compound, the “Growth inhibition grade, P.h” value [1, 6] was 5 (% Mycerial growth inhibition of 80% or higher), the “Growth inhibition grade, P.h” value [1, 7] was 5 (% Mycerial growth inhibition of 80% or higher) and the “Growth inhibition grade, F.c” value (Fusarium oxysporum; [6]) was 5 (% Mycerial growth inhibition of 80% or higher). For the same compound, the “Growth inhibition grade, F.c” value (Fusarium oxysporum; [7]) was 5 (% Mycerial growth inhibition of 80% or higher), the “Growth inhibition grade, G.f” value (Giberella fujikuroi; [6]) was 5 (% Mycerial growth inhibition of 80% or higher) and the “Growth inhibition grade, G.f” value (Giberella fujikuroi; [7]) was 5 (% Mycerial growth inhibition of 80% or higher). The “Growth inhibition grade, P.o” value (Pyricularia oryzae; [6]) was 5 (% Mycerial growth inhibition of 80% or higher) and the “Growth inhibition grade, P.o” value (Pyricularia oryzae; [7]) was 5 (% Mycerial growth inhibition of 80% or higher).
